Patent US5342845A, “Indole derivatives and drugs” (priority 1990, dated 1994)
Where a name gives a salt, the structure may show the parent alone.

Legend:
[1] = system: Bezold-Jarisch reflex (serotonin-induced decrease in heart rate); experiment: Inhibition of serotonin-induced Bezold-Jarisch reflex; format: in vivo, male rats; settings: Rattus norvegicus, iv, 5 min; i.v. 5 min before 0.1 mg/kg i.v. serotonin; dose inhibiting response by 50%
Excerpt: 1. Inhibition of Bezold-Jarisch reflex
The effect of the test compound on the serotonin-induced decrease in heart rate (Bezold-Jarisch reflex) was investigated in male rats, 6-8 weeks of age, with reference to the method of Richardson, et al. (Richardson, B. P., Engel, G., Donatsch, P. and Stadle, P. A.: Identification of serotonin-receptor subtypes and their specific blockade by a new class of drugs; Nature 316, 126-131 (1985)). With the animal immobilized in dorsal position under urethane anesthesia, 0.1 mg/kg of serotonin was administered intravenously before and 5 min after intravenous administration of the test compound and changes in heart rate were recorded. […] The ED50 value was calculated by the least square method.

[2] = system: cisplatin-induced vomiting; experiment: Inhibition of cisplatin-induced vomiting; format: in vivo, beagle dogs; settings: for a/b (Number of animals which vomited/number of animals used): 5 min before cisplatin 2 mg/kg i.v., 6 h observation; for Vomiting frequency: control 12.2 ± 0.8; for Latency to vomiting: control 118.9 ± 5.6
Method: 2. Inhibition of cisplatin-induced vomiting
The experiment was performed with reference to the method of Cohen et al. (Cohen, M. L., Bloomquist, W., Gidda, J. S. and Lacefie, W: Comparison of the 5-HT3 receptor antagonist properties of ICS-205-930, GR38032F and Zacopride; J. Pharmacol. Exp. Ther. 248, 197-201 (1989)). In this experiment, beagle dogs of either sex, weighing 8-15 kg, were used. […] The test compounds were administered intravenously 5 minutes before the administration of cisplatin.

mice = experiment: Acute toxicity; format: in vivo, male mice; settings: 48 hours
Excerpt: Six-week-old male mice were used.

[3] = system: scopolamine-induced deficits of learning and memory; experiment: Ameliorative effect on scopolamine-induced deficits of learning and memory (step through-type passive avoidance); format: in vivo, rats
Method: 3. Ameliorative effect on scopolamine-induced deficits of learning and memory
The experiment was performed in groups of 10 rats. In the intraperitoneal administration study, the test compound was dissolved in physiological saline and administered, and 15 minutes later 0.3 mg/kg of scopolamine was administered intraperitoneally. In the oral administration study, the test compound was suspended in 0.5% methylcellulose (MC) solution and administered and 30 minutes later 0.3 mg/kg of scopolamine was administered intraperitoneally. Thirty minutes after scopolamine administration, training sessions for a step through-type passive avoidance learning task was carried out and 24 hours after this training, trial sessions were started.
The latency to step-through in the trial sessions was determined up to a maximum of 300 seconds and the result was regarded as a learning result. For the test of significant differences from the control group, the Kruscall-Wallis test and the Fisher test were used. The control group received a physiological saline or MC solution.

muscarine M1 receptors = molecular target: T1, muscarine M1 receptors (Rattus norvegicus, UniProt P08482); experiment: Muscarine M1 receptor binding ([^3 H]pirenzepine displacement); settings: 1 nM [^3 H]pirenzepine, rat brain membranes, pH 7.4, 25° C., 60 min
T1 construct: receptor membrane prepared from the rat brain; from tissue; host or cells: rat brain (receptor membrane)
T1 sequence (P08482 1-460): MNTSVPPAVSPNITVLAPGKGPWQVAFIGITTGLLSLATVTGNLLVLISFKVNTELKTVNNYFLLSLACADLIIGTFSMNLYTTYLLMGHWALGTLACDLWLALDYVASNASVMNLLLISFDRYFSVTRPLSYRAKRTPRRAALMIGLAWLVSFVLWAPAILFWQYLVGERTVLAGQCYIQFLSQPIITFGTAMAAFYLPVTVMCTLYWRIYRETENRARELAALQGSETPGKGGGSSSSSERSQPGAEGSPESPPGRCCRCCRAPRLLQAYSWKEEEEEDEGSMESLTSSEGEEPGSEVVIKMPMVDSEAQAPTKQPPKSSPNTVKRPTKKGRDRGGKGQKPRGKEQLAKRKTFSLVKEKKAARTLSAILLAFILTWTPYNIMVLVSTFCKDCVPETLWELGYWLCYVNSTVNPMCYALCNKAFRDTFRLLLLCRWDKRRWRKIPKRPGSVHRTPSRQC
Method: 4. Effect on muscarine M1 receptors
The muscarine M1 receptor binding assay was carried out according to the method of Watson and Yamamura [Life Sci. 32; 3001-3011 (1983)]. Thus, receptor membrane prepared from the rat brain were incubated with 1 nM [^3 H]pirenzepine in 10 mM Na/K phosphate buffer (pH 7.4) at 25° C. for 60 minutes. As a displacer, 1μM atropine was used.

[4] = system: emesis associated with the administration of anticancer drugs; settings: background art; cited from earlier work
[5] = oral, 0.03 μg/kg, control 110.1 ± 41.6 (Example 11), 111.9 ± 41.4 (Example 12)
[6] = oral, 0.1 μg/kg, control 110.1 ± 41.6 (Example 11), 111.9 ± 41.4 (Example 12)
[7] = oral, 0.3 μg/kg, control 110.1 ± 41.6 (Example 11), 111.9 ± 41.4 (Example 12)
[8] = oral, 1 μg/kg, control 110.1 ± 41.6 (Example 11), 111.9 ± 41.4 (Example 12)

## COc1ccc(-c2c(C(=O)N[C@@H]3CN4CCC3CC4)c3ccccc3n2C)cc1 [Example 2, (S)-(-)-N-(1-Azabicyclo[2,2,2]octo-3-yl)-2-(4-methoxyphenyl)-1-methylindole-3-carboxamide hydrochloride]
[1]
  ED50: 0.3 µg/kg
[2]; 0.03 mg/kg i.v.
  a/b (Number of animals which vomited/number of animals used): 2/2
  Vomiting frequency: 6.5 times
  Latency to vomiting: 192.0 min
mice; 30 mg/kg intraperitoneal
  Number of dead animals/number of animals used: 0/4
mice; 50 mg/kg intraperitoneal
  Number of dead animals/number of animals used: 0/4

## Cn1c(-c2ccc(Cl)cc2)c(C(=O)N[C@@H]2CN3CCC2CC3)c2ccccc21 [Example 7, (S)-(-)-N-(1-Azabicyclo[2,2,2]octo-3-yl)-2-(4-chlorophenyl)-1-methylindole-3-carboxamide hydrochloride]
[1]
  ED50: 0.28 µg/kg
[2]; 0.03 mg/kg i.v.
  a/b (Number of animals which vomited/number of animals used): 4/4
  Vomiting frequency: 2.3 ± 0.6 times
  Latency to vomiting: 206.8 ± 15.7 min
mice; 50 mg/kg intraperitoneal
  Number of dead animals/number of animals used: 0/4

## COc1ccccc1-c1c(C(=O)N[C@@H]2CN3CCC2CC3)c2ccccc2n1C [Example 11, (S)-(-)-N-(1-Azabicyclo[2,2,2]octo-3-yl)-2-(2-methoxyphenyl)-1-methylindole-3carboxamide hydrochloride]
[1]
  ED50: 0.14 µg/kg
[2]; 0.01 mg/kg i.v.
  a/b (Number of animals which vomited/number of animals used): 4/4
  Vomiting frequency: 6.8 ± 1.9 times
  Latency to vomiting: 149.5 ± 5.4 min
[3]; [5]
  Latency (to step-through): 214.1 ± 43.8 s
[3]; [6]
  Latency (to step-through): 246.5 ± 35.7 s
[3]; [7]
  Latency (to step-through): 246.7 ± 35.6 s
[3]; [8]
  Latency (to step-through): 162.0 ± 46.1 s
Muscarine M1 receptors
  IC50: 4600 nM

## COc1ccc(-c2c(C(=O)NC3CN4CCC3CC4)c3ccccc3n2C)cc1 (stereo not shown) [Example 4, N-(1-Azabicyclo[2,2,21octo-3-yl)-2-(4-methoxyphenyl)-1-methylindole-3-carboxamide hydrochloride]
mice; 30 mg/kg intraperitoneal
  Number of dead animals/number of animals used: 0/4
mice; 50 mg/kg intraperitoneal
  Number of dead animals/number of animals used: 0/4

## Cn1c(-c2ccccc2Cl)c(C(=O)NC2CN3CCC2CC3)c2ccccc21 (stereo not shown) [Example 10, N-(1-Azabicyclo[2,2,2]octo-3-yl)-2-(2-chlorophenyl)-1-methylindole-3-carboxamide hydrochloride]
[1]
  ED50: 0.25 µg/kg

## Cc1nccn1CC1CCc2c(c3ccccc3n2C)C1=O (stereo not shown) [GR-38032F, ondansetron]
[4]
  anxiolytic and antipsychotic actions (in words): exhibit excellent anxiolytic and antipsychotic actions
  effect on emesis associated with anticancer drugs (in words): markedly inhibit the emesis associated with the administration of anticancer drugs

## Cn1c(-c2ccc(Cl)cc2)c(C(=O)NC2CN3CCC2CC3)c2ccccc21 (stereo not shown) [Example 6, N-(1-Azabicyclo[2,2,2]octo-3-yl)-2-(4-chlorophenyl)-1-methylindole-3-carboxamide hydrochloride]
mice; 50 mg/kg intraperitoneal
  Number of dead animals/number of animals used: 0/4

## Cn1c(-c2ccccc2Cl)c(C(=O)N[C@@H]2CN3CCC2CC3)c2ccccc21 [Example 12, (S)-(31)-N-(1-Azabicyclo[2,2,2]octo-3-yl)-2-(2-chlorophenyl)-1-methylindole-3-carboxamide hydrochloride]
[1]
  ED50: 0.2 µg/kg
[2]; 0.001 mg/kg i.v.
  a/b (Number of animals which vomited/number of animals used): 4/4
  Vomiting frequency: 7.0 ± 1.7 times
  Latency to vomiting: 140.5 ± 13.6 min
[2]; 0.01 mg/kg i.v.
  a/b (Number of animals which vomited/number of animals used): 4/4
  Vomiting frequency: 3.8 ± 0.5 times
  Latency to vomiting: 173.8 ± 25.3 min
[3]; intraperitoneal, 0.1 μg/kg, control 103.8 ± 43.1
  Latency (to step-through): 170.5 ± 43.3 s
[3]; intraperitoneal, 0.3 μg/kg, control 103.8 ± 43.1
  Latency (to step-through): 183.0 ± 39.6 s
[3]; intraperitoneal, 1 μg/kg, control 103.8 ± 43.1
  Latency (to step-through): 270.7 ± 29.3 s
[3]; intraperitoneal, 3 μg/kg, control 103.8 ± 43.1
  Latency (to step-through): 256.3 ± 30.4 s
[3]; intraperitoneal, 10 μg/kg, control 103.8 ± 43.1
  Latency (to step-through): 163.8 ± 45.6 s
[3]; intraperitoneal, 30 μg/kg, control 103.8 ± 43.1
  Latency (to step-through): 127.8 ± 46.9 s
[3]; [5]
  Latency (to step-through): 108.5 ± 42.0 s
[3]; [6]
  Latency (to step-through): 246.3 ± 35.8 s
[3]; [7]
  Latency (to step-through): 247.3 ± 35.2 s
[3]; [8]
  Latency (to step-through): 105.5 ± 42.6 s
[3]; oral, 3 μg/kg, control 111.9 ± 41.4
  Latency (to step-through): 139.2 ± 44.0 s
Muscarine M1 receptors
  IC50: 1200 nM

## CN1C2CCC1CC(OC(=O)c1c[nH]c3ccccc13)C2 (stereo not shown) [ICS-205-930, reference compound]
[1]
  ED50: 1.79 µg/kg
[2]; 0.03 mg/kg i.v.
  a/b (Number of animals which vomited/number of animals used): 4/4
  Vomiting frequency: 9.5 ± 1.3 times
  Latency to vomiting: 139.8 ± 13.2 min

## COc1ccccc1-c1c(C(=O)NC2CN3CCC2CC3)c2ccccc2n1C (stereo not shown) [Example 8, N-(1-Azabicylo[2,2,2]octo-3-yl)-2-(2-methoxyphenyl)-1-methylindole-3-carboxamide hydrochloride]
[1]
  ED50: 0.18 µg/kg

## Cn1c(-c2ccccc2)c(C(=O)N[C@@H]2CN3CCC2CC3)c2ccccc21 [Example 3, (S)-(-)-N(1-Azabicyclo[2,2,2]octo-3-yl)-2-phenyl-1-methylindole-3-carboxamide hydrochloride]
[2]; 0.03 mg/kg i.v.
  a/b (Number of animals which vomited/number of animals used): 2/2
  Vomiting frequency: 1.0 times
  Latency to vomiting: 215.0 min
mice; 30 mg/kg intraperitoneal
  Number of dead animals/number of animals used: 0/4
mice; 50 mg/kg intraperitoneal
  Number of dead animals/number of animals used: 0/4
